Values of other authors in patent EP1479382A1, “Oral pharmaceutical compositions containing taxanes and methods for treatment employing the same” (IVAX Research, Inc., priority 1999, dated 2000).
Where two headings read alike, the source gives them in different places.

CC(=O)O[C@H]1C(=O)[C@@]2(C)[C@H]([C@H](OC(=O)c3ccccc3)[C@]3(O)C[C@H](OC(=O)[C@H](O)[C@@H](NC(=O)c4ccccc4)c4ccccc4)C(C)=C1C3(C)C)[C@]1(OC(C)=O)CO[C@@H]1C[C@@H]2O [paclitaxel]
inhibition of tubulin disassembly occurs at levels of (tubulin): about 0.1 µM
inhibition of tubulin disassembly occurs at levels of (tubulin; same level expressed in ng/ml): about 85 ng/ml
inhibition of protein isoprenylation occurs at levels of (protein isoprenylation): about 0.03 µM
inhibition of protein isoprenylation occurs at levels of (protein isoprenylation; same level expressed in ng/ml): about 25 ng/ml
